Source: the supplement of paper PMC4862054

Columns and labels:
Conditions in all cases: incubation time: 72 h
[1] = tested on: DU-4475; test: normalised response (% of control), CellTiter-Glo; higher = more viable cells (100 = DMSO, 0 = benzethonium chloride kill control)
Procedure, shortened: (§1)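 Compound was dispensed into 384-well plates at 5 concentrations in 10-fold steps spanning a 10,000-fold range specific to that compound. Breast cancer cell lines were added as 20 µl suspension and left for 72 h before CellTox Green fluorescence (485/520 nm) and then CellTiter-Glo luminescence, read after 10 min at room temperature. Each reported value is the normalised signal at one concentration, with 0.1 % DMSO set at 100 and a positive kill control at 0 on each plate.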

[2] = tested on: MDA-MB-468; test: as above
Procedure, shortened: as §1

[3] = tested on: MDA-MB-231; test: as above
Procedure, shortened: as §1

[4] = tested on: MDA-MB-436; test: as above
Procedure, shortened: as §1

[5] = tested on: CAL-51; test: as above
Procedure, shortened: as §1

[6] = tested on: HCC1599; test: as above
Procedure, shortened: as §1

[7] = tested on: SK-BR-3; test: as above
Procedure, shortened: as §1

[8] = tested on: HCC1937; test: as above
Procedure, shortened: as §1

[9] = tested on: CAL-148; test: as above
Procedure, shortened: as §1

[10] = tested on: HDQ-P1; test: as above
Procedure, shortened: as §1

[11] = tested on: BT-474; test: as above
Procedure, shortened: as §1

[12] = tested on: CAL-120; test: as above
Procedure, shortened: as §1

[13] = tested on: MCF-10A; test: as above
Procedure, shortened: as §1

[14] = tested on: HCC1143; test: as above
Procedure, shortened: as §1

[15] = tested on: BT-549; test: as above
Procedure, shortened: as §1

[16] = tested on: CAL-85-1; test: as above
Procedure, shortened: as §1

[17] = tested on: MDA-MB-453; test: as above
Procedure, shortened: as §1

[18] = tested on: Hs578T; test: as above
Procedure, shortened: as §1

[19] = tested on: MFM-223; test: as above
Procedure, shortened: as §1

[20] = tested on: DU-4475; test: normalised response (% of control), CellTox Green; higher = less cell death (100 = DMSO, 0 = benzethonium chloride kill control)
Procedure, shortened: as §1

[21] = tested on: MDA-MB-468; test: as above
Procedure, shortened: as §1

[22] = tested on: MDA-MB-231; test: as above
Procedure, shortened: as §1

[23] = tested on: MDA-MB-436; test: as above
Procedure, shortened: as §1

[24] = tested on: CAL-51; test: as above
Procedure, shortened: as §1

[25] = tested on: HCC1599; test: as above
Procedure, shortened: as §1

[26] = tested on: HCC1937; test: as above
Procedure, shortened: as §1

[27] = tested on: CAL-148; test: as above
Procedure, shortened: as §1

[28] = tested on: BT-474; test: as above
Procedure, shortened: as §1

[29] = tested on: CAL-120; test: as above
Procedure, shortened: as §1

[30] = tested on: MCF-10A; test: as above
Procedure, shortened: as §1

[31] = tested on: HCC1143; test: as above
Procedure, shortened: as §1

[32] = tested on: BT-549; test: as above
Procedure, shortened: as §1

[33] = tested on: CAL-85-1; test: as above
Procedure, shortened: as §1

[34] = tested on: MDA-MB-453; test: as above
Procedure, shortened: as §1

[35] = tested on: Hs578T; test: as above
Procedure, shortened: as §1

[36] = tested on: MFM-223; test: as above
Procedure, shortened: as §1

SMILES | normalised response [1] | normalised response [2] | normalised response [3] | normalised response [4] | normalised response [5] | normalised response [6] | normalised response [7] | normalised response [8] | normalised response [9] | normalised response [10] | normalised response [11] | normalised response [12] | normalised response [13] | normalised response [14] | normalised response [15] | normalised response [16] | normalised response [17] | normalised response [18] | normalised response [19] | normalised response [20] | normalised response [21] | normalised response [22] | normalised response [23] | normalised response [24] | normalised response [25] | normalised response [26] | normalised response [27] | normalised response [28] | normalised response [29] | normalised response [30] | normalised response [31] | normalised response [32] | normalised response [33] | normalised response [34] | normalised response [35] | normalised response [36]
CCc1cncnc1N1CCN(Cc2nc3ccc(C(F)(F)F)cc3[nH]2)CC1 (1000 nM) | 93.4% | 90.3% | 99.4% | 106% | 67% | 98.8% | 112% | 91.1% | 103% | 103% | 96.7% | 98.1% | 103% | 102% | 83.6% | 97.7% | 94.8% | 98.5% | 106% | 104% | 114% | 98.9% | 84.2% | 97% | 97.5% | 111% | 100% | 102% | 98.6% | 111% | 79.2% | 109% | 106% | 94.2% | 100% | 101%
COc1cc2nccc(Oc3ccc(NC(=O)Nc4cc(C)on4)c(Cl)c3)c2cc1OC [Tivozanib] (10 nM) | 99.1% | 93.5% | 98.5% | 94.2% | 85.4% | 98.2% | 80.7% | 98.7% | 82.1% | 100% | 89.9% | 97.4% | 90.3% | 99.9% | 100% | 93.5% | 91.7% | 94.3% | 87.2% |  |  |  |  |  |  |  |  |  |  |  |  |  |  |  |  | 
CC(=O)Nc1cccc(-n2c(=O)n(C3CC3)c(=O)c3c(Nc4ccc(I)cc4F)n(C)c(=O)c(C)c32)c1 [Trametinib] (0.025 nM) | 99.2% | 99.4% | 104% | 100% | 115% | 101% | 110% | 96.5% | 111% | 98.6% | 111% | 106% | 96.3% | 95.5% | 94.9% | 102% | 109% | 99.5% | 100% |  |  |  |  |  |  |  |  |  |  |  |  |  |  |  |  | 
CC(=O)Nc1cccc(-n2c(=O)n(C3CC3)c(=O)c3c(Nc4ccc(I)cc4F)n(C)c(=O)c(C)c32)c1 [Trametinib] (0.25 nM) | 96.3% | 98.8% | 107% | 104% | 122% | 99.7% | 105% | 99.2% | 111% | 108% | 109% | 102% | 82.5% | 99.1% | 92.7% | 98.6% | 100% | 94.7% | 109% |  |  |  |  |  |  |  |  |  |  |  |  |  |  |  |  | 
CC1=C(/C=C/C(C)=C/C=C/C(C)=C/C(=O)O)C(C)(C)CCC1 [Tretinoin] (1 nM) | 101% | 102% | 101% | 107% | 102% | 92% | 107% | 106% | 102% | 98.7% | 102% | 98.7% | 105% | 99.5% | 104% | 98.5% | 97.1% | 102% | 99.2% |  |  |  |  |  |  |  |  |  |  |  |  |  |  |  |  | 
CC1=C(/C=C/C(C)=C/C=C/C(C)=C/C(=O)O)C(C)(C)CCC1 [Tretinoin] (10 nM) | 98.5% | 97.7% | 101% | 94.1% | 81% | 102% | 97% | 98% | 97.8% | 94.4% | 96.6% | 93.2% | 83.7% | 95.8% | 96.9% | 100% | 94.7% | 97.7% | 103% |  |  |  |  |  |  |  |  |  |  |  |  |  |  |  |  | 
COc1cc2c(NC3CCN(C(C)C)CC3)nc(C3CCCCC3)nc2cc1OCCCN1CCCC1 [UNC0638] (1 nM) | 88.9% | 90.5% | 93.3% | 90% | 117% | 76.7% | 90.8% | 95.3% | 86.8% | 103% | 91.1% | 104% | 84.2% | 94.6% | 103% | 97.4% | 95.6% | 99.7% | 87.1% |  |  |  |  |  |  |  |  |  |  |  |  |  |  |  |  | 
COc1cc2c(NC3CCN(C(C)C)CC3)nc(C3CCCCC3)nc2cc1OCCCN1CCCC1 [UNC0638] (10 nM) | 90.4% | 88.2% | 92.5% | 94.8% | 116% | 82.1% | 85.9% | 96.6% | 90.8% | 95.6% | 94.2% | 98% | 83% | 102% | 98.4% | 93.3% | 85.3% | 99.7% | 88% |  |  |  |  |  |  |  |  |  |  |  |  |  |  |  |  | 
COc1cc2c(NC3CCN(C(C)C)CC3)nc(C3CCCCC3)nc2cc1OCCCN1CCCC1 [UNC0638] (1000 nM) | 92.1% | 78.8% | 92% | 91.3% | 71.4% | 82.1% | 84.6% | 89.9% | 88.9% | 95.6% | 92.4% | 92.8% | 76.7% | 93.3% | 91.6% | 106% | 90.6% | 103% | 83.6% | 91.6% | 143% | 81.7% | 92.5% | 78.5% | 89.1% | 92.1% | 93% | 91.6% | 100% | 104% |  | 81.2% | 94.4% | 95.8% | 92.6% | 95.7%
Oc1ncc(N(CCCl)CCCl)c(O)n1 [Uracil mustard] (1 nM) | 95.6% | 107% | 97.2% | 95.8% | 115% | 105% | 99.7% | 103% | 101% | 98.8% | 105% | 98.6% | 105% | 102% | 89.4% | 94.2% | 105% | 99.7% | 101% |  |  |  |  |  |  |  |  |  |  |  |  |  |  |  |  | 
CCCCC(=O)OCC(=O)[C@]1(O)Cc2c(O)c3c(c(O)c2[C@@H](O[C@H]2C[C@H](NC(=O)C(F)(F)F)[C@H](O)[C@H](C)O2)C1)C(=O)c1c(OC)cccc1C3=O [Valrubicin] (0.5 nM) | 99.8% | 99.1% | 99.6% | 98.4% | 87.8% | 97.2% | 97.9% | 98.3% | 94% | 101% | 104% | 95.2% | 111% | 102% | 97.1% | 98.2% | 94.2% | 96% | 102% |  |  |  |  |  |  |  |  |  |  |  |  |  |  |  |  | 
CCCS(=O)(=O)Nc1ccc(F)c(C(=O)c2c[nH]c3ncc(-c4ccc(Cl)cc4)cc23)c1F [Vemurafenib] (1 nM) | 96.7% | 95% | 95.9% | 88% | 92.5% | 95.6% | 86.9% | 91.5% | 84.2% | 89.6% | 97.2% | 92.4% | 82.1% | 85.1% | 95% | 98% | 83.4% | 95.3% | 88% |  |  |  |  |  |  |  |  |  |  |  |  |  |  |  |  | 
CCCS(=O)(=O)Nc1ccc(F)c(C(=O)c2c[nH]c3ncc(-c4ccc(Cl)cc4)cc23)c1F [Vemurafenib] (10 nM) | 93.2% | 88.2% | 91.3% | 88.7% | 109% | 99.6% | 71.8% | 98.8% | 87.8% | 94.9% | 95.5% | 95.2% | 89.2% | 97.6% | 91.2% | 90.9% | 87.6% | 95.8% | 89.8% |  |  |  |  |  |  |  |  |  |  |  |  |  |  |  |  | 
